pIC50: −log10 of the molar value.
Key:
[1] = biological target: T1, IKKε (Homo sapiens, UniProt Q14164); test: TR-FRET enzymatic activity assay, IKKε; assay type: biochemical; details: read-out: IKKϵ IC50; note: full length recombinant IKKε at 0.3 nM
T1 construct: TBK1 and IKKε were expressed and purified as full length recombinant proteins; made in house
T1 sequence (Q14164 1-716): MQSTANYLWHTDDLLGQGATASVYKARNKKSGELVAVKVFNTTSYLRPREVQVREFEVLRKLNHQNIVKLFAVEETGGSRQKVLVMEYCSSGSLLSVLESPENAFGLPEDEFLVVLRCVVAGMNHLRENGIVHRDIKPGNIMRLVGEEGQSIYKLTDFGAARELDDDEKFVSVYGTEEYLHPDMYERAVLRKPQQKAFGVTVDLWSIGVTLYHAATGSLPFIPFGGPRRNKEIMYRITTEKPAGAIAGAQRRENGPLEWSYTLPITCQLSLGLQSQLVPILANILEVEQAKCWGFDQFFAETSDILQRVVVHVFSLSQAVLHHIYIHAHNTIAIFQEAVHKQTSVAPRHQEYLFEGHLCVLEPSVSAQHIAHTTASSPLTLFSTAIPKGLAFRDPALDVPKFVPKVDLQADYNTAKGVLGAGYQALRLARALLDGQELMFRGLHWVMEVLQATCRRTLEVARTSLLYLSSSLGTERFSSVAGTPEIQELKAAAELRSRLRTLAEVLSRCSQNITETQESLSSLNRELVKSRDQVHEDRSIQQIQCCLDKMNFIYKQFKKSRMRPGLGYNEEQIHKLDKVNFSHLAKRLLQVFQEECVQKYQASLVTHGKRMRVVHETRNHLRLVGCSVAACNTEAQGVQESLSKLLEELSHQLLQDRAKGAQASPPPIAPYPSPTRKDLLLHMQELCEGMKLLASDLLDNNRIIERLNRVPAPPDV
Procedure, shortened: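 IC50 values are geometric means of at least four determinations, fitted to a four-parameter curve after normalising to 1 μM staurosporine and DMSO. Signal: Eu-cryptate anti-phospho antibody plus 125 nM streptavidin-XL665 on a biotinylated peptide. Full-length recombinant enzyme reacted 240 min, 25 °C, then EDTA-quenched.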

[2] = biological target: T2, TBK1 (Homo sapiens, UniProt Q9UHD2); test: TR-FRET enzymatic activity assay, TBK1; assay type: biochemical; note: full length recombinant TBK1 at 2.5 nM
T2 construct: TBK1 and IKKε were expressed and purified as full length recombinant proteins; made in house
T2 sequence (Q9UHD2 1-729): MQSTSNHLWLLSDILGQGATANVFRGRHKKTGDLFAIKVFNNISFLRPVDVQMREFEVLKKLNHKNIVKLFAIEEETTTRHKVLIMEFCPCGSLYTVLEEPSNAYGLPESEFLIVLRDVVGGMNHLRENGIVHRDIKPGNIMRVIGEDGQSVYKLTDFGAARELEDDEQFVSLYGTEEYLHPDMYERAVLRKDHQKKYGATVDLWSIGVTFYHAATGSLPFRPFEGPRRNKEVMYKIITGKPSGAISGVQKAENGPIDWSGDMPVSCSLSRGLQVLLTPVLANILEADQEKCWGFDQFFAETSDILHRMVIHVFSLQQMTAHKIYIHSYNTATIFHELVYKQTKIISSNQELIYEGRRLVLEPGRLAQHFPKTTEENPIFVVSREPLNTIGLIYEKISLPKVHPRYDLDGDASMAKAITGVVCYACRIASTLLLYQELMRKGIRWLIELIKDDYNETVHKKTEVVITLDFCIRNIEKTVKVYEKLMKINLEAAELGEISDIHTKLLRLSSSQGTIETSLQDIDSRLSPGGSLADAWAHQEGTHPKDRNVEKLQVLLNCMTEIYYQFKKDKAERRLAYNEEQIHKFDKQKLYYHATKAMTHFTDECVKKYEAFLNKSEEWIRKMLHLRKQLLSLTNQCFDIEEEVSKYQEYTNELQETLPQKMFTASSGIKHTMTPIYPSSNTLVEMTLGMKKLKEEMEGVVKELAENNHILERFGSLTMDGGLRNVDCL
Procedure, shortened: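 TR-FRET detected phosphorylation of a biotinylated serine/threonine peptide using 125 nM streptavidin XL665 plus europium-labelled anti-phospho antibody. Reactions with full-length recombinant kinase ran 240 min at 25 °C before EDTA quench. Values are geometric-mean IC50s (n ≥ 4) from four-parameter dose-response fits against staurosporine and DMSO controls.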

Row | pIC50 [1] | pIC50 [2] | Compound
1 | 7.61 | 7.99 | Cn1cc(C2CC2C(=O)Nc2cc(-c3ccc(O[C@H]4CCN(C(=O)CO)C[C@H]4F)c(C#N)c3)ccn2)cn1 (stereo partly drawn) [Example 77, N-(4-(3-cyano-4-(((3R,4S)-3-fluoro-1-(2-hydroxyacetyl)piperidin-4-yl)oxy)phenyl)pyridin-2-yl)-2-(1-methyl-1H-pyrazol-4-yl)cyclopropane-1-carboxamide]
2 | 6.53 | 6.40 | N#Cc1cc(-c2ccnc(NC(=O)C3(F)CC3)c2)ccc1O[C@H]1CCN(C(=O)CO)C[C@H]1F [Example 78, N-(4-(3-Cyano-4-(((3R,4S)-3-fluoro-1-(2-hydroxyacetyl)piperidin-4-yl)oxy)phenyl)pyridin-2-yl)-1-fluorocyclopropane-1-carboxamide]
3 | < 6.00 | < 6.00 | CN(C)C(=O)[C@@H]1C[C@@H]1C(=O)Nc1cc(-c2ccc(O[C@H]3CCN(C(=O)CO)C[C@H]3F)c(C#N)c2)ccn1 [Example 79, (1,2-cis)-N^1-(4-(3-cyano-4-(((3R,4S)-3-fluoro-1-(2-hydroxyacetyl)piperidin-4-yl)oxy)phenyl)pyridin-2-yl)-N^2,N^2-dimethylcyclopropane-1,2-dicarboxamide]
4 | 7.12 | 6.95 | N#Cc1cc(-c2ccnc(NC(=O)[C@H]3C[C@H](O)C3)c2)ccc1O[C@H]1CCN(C(=O)CO)C[C@H]1F [Example 80, (1,3-trans)-N-(4-(3-Cyano-4-(((3R,4S)-3-fluoro-1-(2-hydroxyacetyl)piperidin-4-yl)oxy)phenyl)pyridin-2-yl)-3-hydroxycyclobutane-1-carboxamide]
5 | 7.33 | 7.73 | N#Cc1cc(-c2ccnc(NC(=O)C3CC3c3c[nH]cn3)c2)ccc1O[C@H]1CCN(C(=O)CO)C[C@H]1F (stereo partly drawn) [Example 81, N-(4-(3-Cyano-4-(((3R,4S)-3-fluoro-1-(2-hydroxyacetyl)piperidin-4-yl)oxy)phenyl)pyridin-2-yl)-2-(1H-imidazol-4-yl)cyclopropane-1-carboxamide]
6 | 6.94 | 6.96 | N#Cc1cc(-c2ccnc(NC(=O)[C@@H]3C[C@H]3C(N)=O)c2)ccc1O[C@H]1CCN(C(=O)CO)C[C@H]1F [Example 85, (1,2-trans)-N-(4-(3-cyano-4-(((3R,4S)-3-fluoro-1-(2-hydroxyacetyl)piperidin-4-yl)oxy)phenyl)pyridin-2-yl)cyclopropane-1,2-dicarboxamide]
7 | 6.11 | 6.37 | N#Cc1cc(-c2ccnc(NC(=O)[C@@H]3C[C@H]3c3ccccc3)c2)ccc1OC1CCOCC1 [Example 87, (1R,2R)—N-(4-(3-cyano-4-((tetrahydro-2H-pyran-4-yl)oxy)phenyl)pyridin-2-yl)-2-phenylcyclopropane-1-carboxamide]
8 | 8.02 | 8.25 | Cn1cc([C@@H]2C[C@H]2C(=O)Nc2cc(-c3ccc(O[C@H]4CCN(C(=O)CO)C[C@H]4F)c(C#N)c3)ccn2)cn1 [Example 90, (1,2-trans)-N-(4-(3-cyano-4-(((3R,4S)-3-fluoro-1-(2-hydroxyacetyl)piperidin-4-yl)oxy)phenyl)pyridin-2-yl)-2-(1-methyl-1H-pyrazol-4-yl)cyclopropane-1-carboxamide]
9 | 6.89 | 7.69 | C[C@H]1CCCN1c1ccc(-c2ccnc(NC(=O)C3CC3)c2)cc1C#N [Example 92, (S)—N-(4-(3-cyano-4-(2-methylpyrrolidin-1-yl)phenyl)pyridin-2-yl)cyclopropanecarboxamide]
10 | 6.29 | 7.15 | N#Cc1cc(-c2ccnc(NC(=O)C3CC3)c2)ccc1N1CCC[C@H]1CO [Example 93, (S)—N-(4-(3-cyano-4-(2-(hydroxymethyl)pyrrolidin-1-yl)phenyl)pyridin-2-yl)cyclopropanecarboxamide]
11 | 6.71 | 6.92 | CO[C@H]1CCN(c2ccc(-c3ccnc(NC(=O)C4CC4)c3)cc2C#N)C1 [Example 94, (S)—N-(4-(3-cyano-4-(3-methoxypyrrolidin-1-yl)phenyl)pyridin-2-yl)cyclopropanecarboxamide]

From patent publication US10316049B2, “Tank-binding kinase inhibitor compounds” (Gilead Sciences, Inc., priority 2015, dated 2019)
